Laboratory results taken from patent US20100248960A1, “Method For Protecting Cereals From Being Infected By Fungi” (BASF SE, priority 2007, published 2010).

What was measured:
Puccinia recondita [1] = assay: Curative control of brown rust on wheat caused by Puccinia recondita; format: in vivo; settings: assessed after 8 days, efficacy in % of untreated control (90% infection), read-out: Observed activity (% infection); for inhibition at 0.063 ppm: 192 h; for inhibition at 0.25 ppm: sprayed 1 day after inoculation
Experimental: (§1) The active compounds were prepared as a stock solution comprising 25 mg of N-(trans-2-bicycloprop-2-ylphenyl)-3-difluoromethyl-1-methyl-1H-pyrazole-4-carboxamide (Ia), which was made up to 10 ml using a mixture of acetone and/or dimethyl sulfoxide and the emulsifier Wettol® EM31 (wetting agent having an emulsifying and dispersing action based on ethoxylated alkylphenols) in a ratio by volume of solvent/emulsifier of 99:1. The mixture was then made up to 100 ml with water. This stock solution was diluted with the solvent/emulsifier/water mixture described to give the concentration of active compound stated below. Epoxiconazole and metconazole were employed as a commercial finished formulation and diluted with water to the stated concentration of active compound.
(§2) The visually determined percentages of infected leaf areas were converted into efficacies in % of the untreated control.
(§3) The efficacy (E) is calculated as follows using Abbot's formula: […]
(§4) αcorresponds to the fungicidal infection of the treated plants in % and βcorresponds to the fungicidal infection of the untreated (control) plants in %
(§5) An efficacy of 0 means that, the infection level of the treated plants corresponds to that of the untreated control plants; an efficacy of 100 means that the treated plants were not infected.
(§6) The expected efficacies of active compound combinations were determined using Colby's formula (Colby, S.R. “Calculating synergistic and antagonistic responses of herbicide combinations”, Weeds, 15, pp. 20-22, 1967) and compared with the observed efficacies.
(§7) Colby's formula: E=x+y−x•y/100 • E expected efficacy, expressed in % of the untreated control, when using the mixture of the active compounds A and B at the concentrations a and b • x efficacy, expressed in % of the untreated control, when using the active compound A at the concentration a • y efficacy, expressed in % of the untreated control, when using the active compound B at the concentration b
The first two developed leaves of pot-grown wheat seedling were dusted with spores of Puccinia recondita. To ensure the success the artificial inoculation, the plants were transferred to a humid chamber without light and a relative humidity of 95 to 99% and 20 to 22° C. for 24 h. The next day the plants were sprayed to run-off with an aqueous suspension, containing the concentration of active ingredient as described below. The plants were allowed to air-dry. Then the trial plants were cultivated for 8 days in a greenhouse chamber at 22-26° C. and a relative humidity between 65 and 70%. The extent of fungal attack on the leaves was visually assessed as % diseased leaf area. The expected efficacies of mixtures of active compounds were determined using Colby's formula and compared with the observed efficacies.

Puccinia recondita [2] = assay: Preventative control of brown rust on wheat caused by Puccinia recondita; format: in vivo; settings: efficacy in % of untreated control (90% infection), read-out: Observed activity (% infection); for inhibition at 1 ppm: sprayed 1 day before inoculation
Experimental: as §1, §2, §3, §4, §5, §6, §7
The first two developed leaves of pot-grown wheat seedling were sprayed to run-off with an aqueous suspension, containing the concentration of active ingredient as described below. The next day the plants were inoculated with spores of Puccinia recondita. To ensure the success the artificial inoculation, the plants were transferred to a humid chamber without light and a relative humidity of 95 to 99% and 20 to 22° C. for 24 h. Then the trial plants were cultivated for 6 days in a greenhouse chamber at 22-26° C. and a relative humidity between 65 and 70%. The extent of fungal attack on the leaves was visually assessed as % diseased leaf area.
The expected efficacies of mixtures of active compounds were determined using Colby's formula and compared with the observed efficacies.

Compound | inhibition at 0.063 ppm (Puccinia recondita [1]) [%] | inhibition at 0.25 ppm (Puccinia recondita [1]) [%] | inhibition at 0.063 ppm (Puccinia recondita [2]; 0.063 ppm) [%] | inhibition at 1 ppm (Puccinia recondita [2]) [%] | inhibition at 0.25 ppm (Puccinia recondita [2]; 0.25 ppm) [%]
Fc1ccc([C@]2(Cn3cncn3)O[C@H]2c2ccccc2Cl)cc1 (racemic) [epoxiconazole] | 22 |  |  |  | 
CC1(C)CCC(Cc2ccc(Cl)cc2)C1(O)Cn1cncn1 (centres unmarked) [metconazole] |  | 44 | 0 | 0 | 
Cn1cc(C(=O)Nc2ccccc2[C@@H]2C[C@H]2C2CC2)c(C(F)F)n1 [Compound (Ia), N-(trans-2-bicycloprop-2-ylphenyl)-3-difluoromethyl-1-methyl-1H-pyrazole-4-carboxamide] | 0 | 0 |  | 22 | 0
